Patent US20020048549A1, “Radioactive transition metal nitride heterocomplex” (priority 1996, published 2002)

Experiment: Biodistribution of 99mTcN-DESI in SD rats (Group A alone, Group B with unlabeled desipramine)
Assay type: in vivo
Procedure: The biodistribution of the ^99mTcN-DESI in SD rats obtained in Example 15 was measured.
Before being injected into the rats, the ^99mTcN-DESI was separated and purified from the excess and free bidentate ligand by HPLC. The active ingredient of the complex was further purified by passage through a Sep-Pak cartridge activated with 5 ml of 95% ethanol. The final active ingredient was recovered with 95% ethanol and diluted with physiological saline containing 10% Tween 80.
The rats were divided into two groups, group A and group B. Into each rat in group A was injected 20 μCi of the ^99mTcN-DESI. Into each rat in group B were injected 20 μCi of the ^99mTcN-DESI and 1.0 mg/kg of unlabeled desipramine at the same time.
SD rats weighing about 250 g were put under intraperitoneal anesthesia with a mixture of xylazine (18 mg/kg) and ketamine (15 mg/kg) and given an injection in the jugular vein. Then, the organs (brain, heart, lung, liver, spleen, kidney, muscle, adrenal, and submaxillary gland) were excised from the rats at different intervals of time, washed and then weighed. In addition, blood samples were collected and then weighed. The data on the biodistribution are expressed as the mean±significant difference of the percentage of radioactivity level per gram of the organ weight based on the dose of radioactivity, (% dose/g). The measurement was carried out using groups of 3 rats each.

[1] = Group A (complex alone), 10 min
[2] = Group A (complex alone), 30 min
[3] = Group A (complex alone), 60 min
[4] = Group A (complex alone), 120 min
[5] = Group A (complex alone), 150 min
[6] = Group B (with 1.0 mg/kg unlabeled desipramine), 2 min
[7] = Group B (with 1.0 mg/kg unlabeled desipramine), 5 min
[8] = Group B (with 1.0 mg/kg unlabeled desipramine), 10 min
[9] = Group B (with 1.0 mg/kg unlabeled desipramine), 30 min
[10] = Group B (with 1.0 mg/kg unlabeled desipramine), 60 min
[11] = Group B (with 1.0 mg/kg unlabeled desipramine), 120 min
[12] = Group B (with 1.0 mg/kg unlabeled desipramine), 150 min

SMILES: COCCC[P+]1(CCCOC)CCN(CCOC)CC[P+](CCCOC)(CCCOC)[99Tc-2]12(#[N])[NH]C(C(=O)N(C)CCCN1c3ccccc3CCc3ccccc31)C[S]2 (centres unmarked) [^99mTcN-DESI]
- Adrenal glands % dose/g (Group A (complex alone), 2 min): 4.227 ± 0.089 % dose/g
- Blood % dose/g (Group A (complex alone), 2 min): 0.383 ± 0.287 % dose/g
- Brain % dose/g (Group A (complex alone), 2 min): 0.082 ± 0.010 % dose/g
- Heart % dose/g (Group A (complex alone), 2 min): 0.904 ± 0.062 % dose/g
- Kidney % dose/g (Group A (complex alone), 2 min): 6.518 ± 0.821 % dose/g
- Liver % dose/g (Group A (complex alone), 2 min): 7.259 ± 0.005 % dose/g
- Lung % dose/g (Group A (complex alone), 2 min): 0.565 ± 0.074 % dose/g
- Muscle % dose/g (Group A (complex alone), 2 min): 0.110 ± 0.004 % dose/g
- Spleen % dose/g (Group A (complex alone), 2 min): 1.833 ± 0.249 % dose/g
- Submaxillary glands % dose/g (Group A (complex alone), 2 min): 1.791 ± 0.249 % dose/g
- Adrenal glands % dose/g (Group A (complex alone), 5 min): 3.710 ± 0.682 % dose/g
- Blood % dose/g (Group A (complex alone), 5 min): 0.349 ± 0.033 % dose/g
- Brain % dose/g (Group A (complex alone), 5 min): 0.079 ± 0.002 % dose/g
- Heart % dose/g (Group A (complex alone), 5 min): 0.881 ± 0.071 % dose/g
- Kidney % dose/g (Group A (complex alone), 5 min): 6.193 ± 0.421 % dose/g
- Liver % dose/g (Group A (complex alone), 5 min): 5.798 ± 0.549 % dose/g
- Lung % dose/g (Group A (complex alone), 5 min): 0.425 ± 0.094 % dose/g
- Muscle % dose/g (Group A (complex alone), 5 min): 0.105 ± 0.010 % dose/g
- Spleen % dose/g (Group A (complex alone), 5 min): 1.927 ± 0.155 % dose/g
- Submaxillary glands % dose/g (Group A (complex alone), 5 min): 1.721 ± 0.460 % dose/g
- Adrenal glands % dose/g [1]: 5.353 ± 0.339 % dose/g
- Blood % dose/g [1]: 0.212 ± 0.012 % dose/g
- Brain % dose/g [1]: 0.076 ± 0.003 % dose/g
- Heart % dose/g [1]: 0.894 ± 0.016 % dose/g
- Kidney % dose/g [1]: 6.295 ± 0.329 % dose/g
- Liver % dose/g [1]: 4.539 ± 0.286 % dose/g
- Lung % dose/g [1]: 0.399 ± 0.011 % dose/g
- Muscle % dose/g [1]: 0.096 ± 0.009 % dose/g
- Spleen % dose/g [1]: 2.139 ± 0.200 % dose/g
- Submaxillary glands % dose/g [1]: 1.876 ± 0.030 % dose/g
- Adrenal glands % dose/g [2]: 5.153 ± 0.039 % dose/g
- Blood % dose/g [2]: 0.095 ± 0.024 % dose/g
- Brain % dose/g [2]: 0.070 ± 0.005 % dose/g
- Heart % dose/g [2]: 0.951 ± 0.103 % dose/g
- Kidney % dose/g [2]: 10.11 ± 1.762 % dose/g
- Liver % dose/g [2]: 3.069 ± 0.672 % dose/g
- Lung % dose/g [2]: 0.351 ± 0.085 % dose/g
- Muscle % dose/g [2]: 0.098 ± 0.021 % dose/g
- Spleen % dose/g [2]: 1.965 ± 0.158 % dose/g
- Submaxillary glands % dose/g [2]: 2.065 ± 0.069 % dose/g
- Adrenal glands % dose/g [3]: 4.800 ± 1.737 % dose/g
- Blood % dose/g [3]: 0.069 ± 0.008 % dose/g
- Brain % dose/g [3]: 0.064 ± 0.003 % dose/g
- Heart % dose/g [3]: 0.931 ± 0.025 % dose/g
- Kidney % dose/g [3]: 6.227 ± 1.020 % dose/g
- Liver % dose/g [3]: 2.809 ± 0.739 % dose/g
- Lung % dose/g [3]: 0.224 ± 0.070 % dose/g
- Muscle % dose/g [3]: 0.108 ± 0.015 % dose/g
- Spleen % dose/g [3]: 1.873 ± 0.667 % dose/g
- Submaxillary glands % dose/g [3]: 1.491 ± 1.149 % dose/g
- Adrenal glands % dose/g [4]: 4.220 ± 0.182 % dose/g
- Blood % dose/g [4]: 0.068 ± 0.001 % dose/g
- Brain % dose/g [4]: 0.051 ± 0.001 % dose/g
- Heart % dose/g [4]: 0.806 ± 0.080 % dose/g
- Kidney % dose/g [4]: 5.538 ± 0.607 % dose/g
- Liver % dose/g [4]: 1.463 ± 0.186 % dose/g
- Lung % dose/g [4]: 0.151 ± 0.001 % dose/g
- Muscle % dose/g [4]: 0.397 ± 0.033 % dose/g
- Spleen % dose/g [4]: 1.453 ± 0.085 % dose/g
- Submaxillary glands % dose/g [4]: 1.351 ± 0.037 % dose/g
- Adrenal glands % dose/g [5]: 5.013 ± 1.061 % dose/g
- Blood % dose/g [5]: 0.058 ± 0.008 % dose/g
- Brain % dose/g [5]: 0.034 ± 0.004 % dose/g
- Heart % dose/g [5]: 0.884 ± 0.075 % dose/g
- Kidney % dose/g [5]: 7.182 ± 0.349 % dose/g
- Liver % dose/g [5]: 1.375 ± 0.054 % dose/g
- Lung % dose/g [5]: 0.194 ± 0.002 % dose/g
- Muscle % dose/g [5]: 0.090 ± 0.009 % dose/g
- Spleen % dose/g [5]: 1.461 ± 0.132 % dose/g
- Submaxillary glands % dose/g [5]: 1.976 ± 0.293 % dose/g
- Adrenal glands % dose/g [6]: 4.314 ± 0.718 % dose/g
- Blood % dose/g [6]: 0.467 ± 0.011 % dose/g
- Brain % dose/g [6]: 0.032 ± 0.004 % dose/g
- Heart % dose/g [6]: 0.793 ± 0.037 % dose/g
- Kidney % dose/g [6]: 5.492 ± 0.602 % dose/g
- Liver % dose/g [6]: 5.149 ± 0.787 % dose/g
- Lung % dose/g [6]: 0.488 ± 0.042 % dose/g
- Muscle % dose/g [6]: 0.103 ± 0.002 % dose/g
- Spleen % dose/g [6]: 1.841 ± 0.197 % dose/g
- Submaxillary glands % dose/g [6]: 1.878 ± 0.09 % dose/g
- Adrenal glands % dose/g [7]: 4.480 ± 0.991 % dose/g
- Blood % dose/g [7]: 0.277 ± 0.028 % dose/g
- Brain % dose/g [7]: 0.029 ± 0.003 % dose/g
- Heart % dose/g [7]: 0.819 ± 0.052 % dose/g
- Kidney % dose/g [7]: 5.899 ± 1.397 % dose/g
- Liver % dose/g [7]: 6.420 ± 0.378 % dose/g
- Lung % dose/g [7]: 0.353 ± 0.028 % dose/g
- Muscle % dose/g [7]: 0.101 ± 0.014 % dose/g
- Spleen % dose/g [7]: 2.032 ± 0.197 % dose/g
- Submaxillary glands % dose/g [7]: 1.786 ± 0.201 % dose/g
- Adrenal glands % dose/g [8]: 4.349 ± 0.164 % dose/g
- Blood % dose/g [8]: 0.170 ± 0.020 % dose/g
- Brain % dose/g [8]: 0.018 ± 0.001 % dose/g
- Heart % dose/g [8]: 0.814 ± 0.023 % dose/g
- Kidney % dose/g [8]: 5.192 ± 0.036 % dose/g
- Liver % dose/g [8]: 4.732 ± 0.057 % dose/g
- Lung % dose/g [8]: 0.348 ± 0.003 % dose/g
- Muscle % dose/g [8]: 0.086 ± 0.007 % dose/g
- Spleen % dose/g [8]: 1.559 ± 0.074 % dose/g
- Submaxillary glands % dose/g [8]: 1.669 ± 0.126 % dose/g
- Adrenal glands % dose/g [9]: 6.120 ± 2.224 % dose/g
- Blood % dose/g [9]: 0.169 ± 0.028 % dose/g
- Brain % dose/g [9]: 0.018 ± 0.003 % dose/g
- Heart % dose/g [9]: 0.832 ± 0.170 % dose/g
- Kidney % dose/g [9]: 7.883 ± 1.689 % dose/g
- Liver % dose/g [9]: 4.957 ± 0.168 % dose/g
- Lung % dose/g [9]: 0.27 ± 0.117 % dose/g
- Muscle % dose/g [9]: 0.091 ± 0.011 % dose/g
- Spleen % dose/g [9]: 1.339 ± 0.380 % dose/g
- Submaxillary glands % dose/g [9]: 1.042 ± 0.123 % dose/g
- Adrenal glands % dose/g [10]: 4.321 ± 0.712 % dose/g
- Blood % dose/g [10]: 0.074 ± 0.016 % dose/g
- Brain % dose/g [10]: 0.016 ± 0.002 % dose/g
- Heart % dose/g [10]: 0.693 ± 0.057 % dose/g
- Kidney % dose/g [10]: 5.176 ± 0.584 % dose/g
- Liver % dose/g [10]: 2.505 ± 0.113 % dose/g
- Lung % dose/g [10]: 0.253 ± 0.014 % dose/g
- Muscle % dose/g [10]: 0.110 ± 0.024 % dose/g
- Spleen % dose/g [10]: 1.403 ± 0.209 % dose/g
- Submaxillary glands % dose/g [10]: 1.596 ± 0.138 % dose/g
- Adrenal glands % dose/g [11]: 4.588 ± 0.985 % dose/g
- Blood % dose/g [11]: 0.050 ± 0.007 % dose/g
- Brain % dose/g [11]: 0.004 ± 0.000 % dose/g
- Heart % dose/g [11]: 0.745 ± 0.063 % dose/g
- Kidney % dose/g [11]: 5.737 ± 0.093 % dose/g
- Liver % dose/g [11]: 1.159 ± 0.09 % dose/g
- Lung % dose/g [11]: 0.206 ± 0.048 % dose/g
- Muscle % dose/g [11]: 0.343 ± 0.443 % dose/g
- Spleen % dose/g [11]: 1.865 ± 0.313 % dose/g
- Submaxillary glands % dose/g [11]: 1.641 ± 0.280 % dose/g
- Adrenal glands % dose/g [12]: 4.09 ± 0.294 % dose/g
- Blood % dose/g [12]: 0.050 ± 0.014 % dose/g
- Brain % dose/g [12]: 0.001 ± 0.000 % dose/g
- Heart % dose/g [12]: 0.815 ± 0.070 % dose/g
- Kidney % dose/g [12]: 5.646 ± 1.192 % dose/g
- Liver % dose/g [12]: 1.253 ± 0.006 % dose/g
- Lung % dose/g [12]: 0.163 ± 0.036 % dose/g
- Muscle % dose/g [12]: 0.096 ± 0.007 % dose/g
- Spleen % dose/g [12]: 1.637 ± 0.147 % dose/g
- Submaxillary glands % dose/g [12]: 1.983 ± 0.339 % dose/g
- accumulation in adrenal (SD rats): very large amount
- accumulation in heart (SD rats): considerable amount
- elimination through liver and kidney (SD rats): very rapidly eliminated
